Measured values published in ChEMBL document CHEMBL1146970, “Potent blockers of the monocarboxylate transporter MCT1: novel immunomodulatory compounds” (Bioorg Med Chem Lett, 2006).
Values after ≈ are worked out from the molar mass of the structure shown.

Experiments:
physchem [1] = conditions: octanol/water
physchem [2] = conditions: aqueous
[3] = buffer

logD (physchem [1]) | solubility (physchem [2]) [µg/mL] | solubility [3] [µg/mL] | SMILES
2 | – | – | CC(C)Cn1c(=O)n(C)c(=O)c2c(C(=O)N3CC[C@@H](O)C3)c(Cc3cccc4ncccc34)sc21
1.7 | 520 (≈ 1060 µM) | – | CC(C)Cn1c(=O)n(C)c(=O)c2c(C(=O)N3CC[C@@H](O)C3)c(Cc3ccnc4ccccc34)sc21
2.4 | – | – | CC(C)Cn1c(=O)n(C)c(=O)c2c(C(=O)N3CC[C@@H](O)C3)c(Cc3c[nH]c4ccccc34)sc21
1.7 | – | – | CC(C)Cn1c(=O)n(C)c(=O)c2c(C(=O)N3CC[C@@H](O)C3)c(Cc3cncc4ccccc34)sc21
2.7 | – | – | CC(C)Cn1c(=O)n(C)c(=O)c2c(C(=O)N3CC[C@@H](O)C3)c(Cc3ccccc3C(F)(F)F)sc21
3.8 | – | – | CC(C)Cn1c(=O)n(C)c(=O)c2c(C(=O)N3CCCC3)c(Cc3ccccc3C(F)(F)F)sc21
3.2 | – | – | CC(C)Cn1c(=O)n(C)c(=O)c2c(C(=O)N3CC(C)(O)C3)c(Cc3ccccc3C(F)(F)F)sc21
3.3 | – | – | CC(C)Cn1c(=O)n(C)c(=O)c2c(S(=O)(=O)N3CC[C@@H](O)C3)c(Cc3ccccc3C(F)(F)F)sc21 (racemic)

The remaining lines, values behind:

SMILES | logD (physchem [1]) | solubility (physchem [2]) [µg/mL] | solubility [3] [µg/mL]
CC(C)Cn1c(=O)n(C)c(=O)c2c(SCCCO)c(Cc3ccccc3C(F)(F)F)sc21 | 4.1 | – | –
CC(C)Cn1c(=O)n(C)c(=O)c2c(C(=O)N3CC[C@@H](O)C3)c(Cc3c[nH]c4ncccc34)sc21 | 1.7 | – | –
Cc1nc(Cl)c(Cl)n1Cc1sc2c(c1C(=O)N1CC[C@@H](O)C1)c(=O)n(C)c(=O)n2CC(C)C | 1.6 | – | –
CC(C)Cn1c(=O)n(C)c(=O)c2c(SC3CCC3)c(Cc3ccccc3C(F)(F)F)sc21 | > 3.5 | – | –
CC(C)Cc1nn(C)c(=O)c2c(SCCCO)n(Cc3cccc4ccccc34)cc12 | 4.8 | < 1 | –
CNc1nc2ccccc2n1Cc1sc2c(c1C(=O)N1CC[C@@H](O)C1)c(=O)n(C)c(=O)n2CC(C)C | 1.6 | – | –
CC(C)Cn1c(=O)n(C)c(=O)c2c(SCCCO)n(Cc3cccc4ccccc34)cc21 | 4.4 | – | 80 (≈ 177 µM)
CC(C)Cn1c(=O)n(C)c(=O)c2c(S[C@@H]3CCC[C@H]3O)c(Cc3ccccc3C(F)(F)F)sc21 (racemic) | 4.2 | – | –
CC(C)Cn1c(=O)n(C)c(=O)c2c(SCC(O)CO)c(Cc3ccccc3C(F)(F)F)sc21 (racemic) | > 4.5 | – | –
CC(C)Cn1c(=O)n(C)c(=O)c2c(S[C@@H]3CC[C@H](O)C3)c(Cc3ccccc3C(F)(F)F)sc21 (racemic) | 4.4 | – | –
